Experiments:
foxtail, giant = test: Test A preemergence; format: in vivo, Setaria faberii; conditions: preemergence; for Foxtail, Giant plant response rating (0 to 100 scale): 125 g ai/ha, visual injury approx. 10 days after treatment; for Foxtail, Giant plant response rating: 500 g ai/ha, visual injury after approx. 10 days, 0 to 100 scale (0 no effect, 100 complete control)
In short: (§1)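 Ratings express plant response from 0 (no effect) to 100 (complete control), judged visually against untreated controls after approximately 10 days in the greenhouse. Preemergence applications were made as directed soil sprays onto seeded loam–sand mix, and postemergence applications onto 2–10 cm plants at one- to two-leaf stage.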

rice = test: Test B flood; format: in vivo, Oryza sativa; conditions: 250 g ai/ha, visual rating on 0 to 100 scale (0 no effect, 100 complete control), 13 to 15 days
In short: (§2)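 Two-leaf-stage plants, pots flooded (3 cm above soil) and treated through the water, which stayed at that depth. After 13–15 days in greenhouse conditions, visual assessment versus controls: 0 is no effect, 100 complete control, dash means no result.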

pigweed = test: Test C postemergence; format: in vivo, Amaranthus retroflexus; conditions: postemergence; for Pigweed plant response rating: 62 g ai/ha, scale 0 to 100
In short: (§3)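 In this greenhouse assay, seeded soil (loam plus sand) or emerged seedlings in peat-vermiculite medium were treated with formulated compound. Roughly two weeks later (13–15 days), each species was scored visually relative to controls, from 0 for no effect to 100 for complete control.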

lambsquarters = test: Test C postemergence; format: in vivo, Chenopodium album; conditions: for Plant response rating (scale of 0 to 100 where 0 is no effect and 100 is complete control), Lambsquarters: Postemergence, 31 g ai/ha, visually evaluated after 13 to 15 days; for Lambsquarters plant response rating / Plant response rating, Lambsquarters: postemergence; for Lambsquarters plant response rating: 62 g ai/ha, scale 0 to 100
In short: as §3

barnyardgrass [1] = test: Test B flood; format: in vivo, Echinochloa crus-galli; conditions: 250 g ai/ha, visual rating on 0 to 100 scale (0 no effect, 100 complete control), 13 to 15 days
In short: as §2

velvetleaf = test: Test C postemergence; format: in vivo, Abutilon theophrasti; conditions: postemergence; for Plant response rating, Velvetleaf: 250 g ai/ha, scale 0 to 100 (0 no effect, 100 complete control)
In short: as §3

nutsedge, yellow = test: Test C postemergence; format: in vivo, Cyperus esculentus; conditions: for Plant response rating (scale of 0 to 100 where 0 is no effect and 100 is complete control), Nutsedge, Yellow: Postemergence, 31 g ai/ha, visually evaluated after 13 to 15 days; for Nutsedge, Yellow plant response rating / Plant response rating, Nutsedge, Yellow: postemergence; for Nutsedge, Yellow plant response rating: 62 g ai/ha, scale 0 to 100
In short: as §3

barnyardgrass [2] = test: Test A postemergence; format: in vivo, Echinochloa crus-galli
In short: as §1

ducksalad = test: Test B flood; format: in vivo, Heteranthera limosa; conditions: 250 g ai/ha, visual rating on 0 to 100 scale (0 no effect, 100 complete control), 13 to 15 days
In short: as §2

waterhemp = test: Test C preemergence; format: in vivo, Amaranthus rudis; conditions: preemergence; for Plant response rating, Waterhemp: 125 g ai/ha, scale 0 to 100, 0 = no effect, 100 = complete control
In short: as §3

oat, wild = test: Test C postemergence; format: in vivo, Avena fatua; conditions: for Plant response rating (scale of 0 to 100 where 0 is no effect and 100 is complete control), Oat, Wild: Postemergence, 31 g ai/ha, visually evaluated after 13 to 15 days; for Oat, Wild plant response rating / Plant response rating, Oat, Wild: postemergence; for Oat, Wild plant response rating: 62 g ai/ha, scale 0 to 100
In short: as §3

kochia = test: Test C postemergence; format: in vivo, Kochia scoparia; conditions: for Plant response rating (scale of 0 to 100 where 0 is no effect and 100 is complete control), Kochia: Postemergence, 31 g ai/ha, visually evaluated after 13 to 15 days; for Kochia plant response rating / Plant response rating, Kochia: postemergence; for Kochia plant response rating: 62 g ai/ha, scale 0 to 100
In short: as §3

johnsongrass = test: Test C postemergence; format: in vivo, Sorghum halepense; conditions: for Plant response rating (scale of 0 to 100 where 0 is no effect and 100 is complete control), Johnsongrass: Postemergence, 31 g ai/ha, visually evaluated after 13 to 15 days; for Johnsongrass plant response rating / Plant response rating, Johnsongrass: postemergence; for Johnsongrass plant response rating: 62 g ai/ha, scale 0 to 100
In short: as §3

oilseed rape = test: Test C postemergence; format: in vivo, Brassica napus; conditions: postemergence; for Oilseed Rape plant response rating: 62 g ai/ha, scale 0 to 100
In short: as §3

[3] = 250 g ai/ha, scale 0 to 100 (0 no effect, 100 complete control)
[4] = 125 g ai/ha, scale 0 to 100, 0 no effect, 100 complete control
[5] = Postemergence, 500 g ai/ha, 0 to 100 scale (0 no effect, 100 complete control)
[6] = postemergence, 125 g ai/ha, about 10 days, visual rating on 0 to 100 scale (0 no effect, 100 complete control)
[7] = 31 g ai/ha, visual rating, scale 0 to 100 (0 no effect, 100 complete control), 13 to 15 days
[8] = 62 g ai/ha, scale 0 to 100 (0 no effect, 100 complete control), 13 to 15 days
[9] = 250 g ai/ha, scale 0 to 100, 0 is no effect, 100 is complete control

## CCCNC(=O)c1cc(CCC)n(Cc2cc(C(F)(F)F)nn2C)n1 [Compound 198]
foxtail, giant
  Foxtail, Giant plant response rating (0 to 100 scale): 100
  Foxtail, Giant plant response rating: 90
rice
  Plant response rating, Rice: 60
pigweed
  Pigweed plant response rating: 60
pigweed; [3]
  Plant response rating, Pigweed: 90
pigweed; [4]
  Plant response rating, Pigweed: 80
lambsquarters
  Plant response rating (scale of 0 to 100 where 0 is no effect and 100 is complete control), Lambsquarters: 20
  Lambsquarters plant response rating: 50
lambsquarters; [3]
  Plant response rating, Lambsquarters: 85
lambsquarters; [4]
  Plant response rating, Lambsquarters: 75
Barnyardgrass [1]
  Plant response rating, Barnyardgrass: 60
velvetleaf
  Plant response rating, Velvetleaf: 50
velvetleaf; scale 0 to 100
  Velvetleaf plant response rating: 40
nutsedge, yellow
  Plant response rating (scale of 0 to 100 where 0 is no effect and 100 is complete control), Nutsedge, Yellow: 5
  Nutsedge, Yellow plant response rating: 10
nutsedge, yellow; [3]
  Plant response rating, Nutsedge, Yellow: 5
nutsedge, yellow; [4]
  Plant response rating, Nutsedge, Yellow: 5
Barnyardgrass [2]; [5]
  Barnyardgrass plant response rating: 100
Barnyardgrass [2]; [6]
  Barnyardgrass plant response rating: 90
ducksalad
  Plant response rating, Ducksalad: 100
waterhemp; [7]
  Waterhemp plant response rating: 98
waterhemp; [8]
  Waterhemp plant response rating: 98
waterhemp; 13 to 15 days
  Plant response rating, Waterhemp: 100
waterhemp; [9]
  Waterhemp plant response rating: 100
oat, wild
  Plant response rating (scale of 0 to 100 where 0 is no effect and 100 is complete control), Oat, Wild: 10
  Oat, Wild plant response rating: 10
oat, wild; [3]
  Plant response rating, Oat, Wild: 45
oat, wild; [4]
  Plant response rating, Oat, Wild: 20
kochia
  Plant response rating (scale of 0 to 100 where 0 is no effect and 100 is complete control), Kochia: 80
  Kochia plant response rating: 80
kochia; [3]
  Plant response rating, Kochia: 90
kochia; [4]
  Plant response rating, Kochia: 85
johnsongrass
  Plant response rating (scale of 0 to 100 where 0 is no effect and 100 is complete control), Johnsongrass: 5
  Johnsongrass plant response rating: 5
johnsongrass; [3]
  Plant response rating, Johnsongrass: 10
johnsongrass; [4]
  Plant response rating, Johnsongrass: 5
Oilseed rape
  Oilseed Rape plant response rating: 50
Oilseed rape; [3]
  Plant response rating, Oilseed Rape: 60
Oilseed rape; [4]
  Plant response rating, Oilseed Rape: 70

## CCc1cc(C(=O)NC2CC2)nn1Cc1ccnc(OCC(F)(F)F)c1 [Compound 200]
foxtail, giant
  Foxtail, Giant plant response rating (0 to 100 scale): 100
  Foxtail, Giant plant response rating: 100
rice
  Plant response rating, Rice: 0
pigweed
  Pigweed plant response rating: 60
pigweed; [3]
  Plant response rating, Pigweed: 80
pigweed; [4]
  Plant response rating, Pigweed: 75
lambsquarters
  Plant response rating (scale of 0 to 100 where 0 is no effect and 100 is complete control), Lambsquarters: 55
  Lambsquarters plant response rating: 65
lambsquarters; [3]
  Plant response rating, Lambsquarters: 95
lambsquarters; [4]
  Plant response rating, Lambsquarters: 65
Barnyardgrass [1]
  Plant response rating, Barnyardgrass: 25
velvetleaf
  Plant response rating, Velvetleaf: 45
nutsedge, yellow
  Plant response rating (scale of 0 to 100 where 0 is no effect and 100 is complete control), Nutsedge, Yellow: 0
  Nutsedge, Yellow plant response rating: 0
nutsedge, yellow; [3]
  Plant response rating, Nutsedge, Yellow: 10
nutsedge, yellow; [4]
  Plant response rating, Nutsedge, Yellow: 5
Barnyardgrass [2]; [5]
  Barnyardgrass plant response rating: 100
Barnyardgrass [2]; [6]
  Barnyardgrass plant response rating: 90
ducksalad
  Plant response rating, Ducksalad: 80
waterhemp; [7]
  Waterhemp plant response rating: 100
waterhemp; [8]
  Waterhemp plant response rating: 100
waterhemp; 13 to 15 days
  Plant response rating, Waterhemp: 100
waterhemp; [9]
  Waterhemp plant response rating: 100
oat, wild
  Plant response rating (scale of 0 to 100 where 0 is no effect and 100 is complete control), Oat, Wild: 5
  Oat, Wild plant response rating: 10
oat, wild; [3]
  Plant response rating, Oat, Wild: 20
oat, wild; [4]
  Plant response rating, Oat, Wild: 10
kochia
  Plant response rating (scale of 0 to 100 where 0 is no effect and 100 is complete control), Kochia: 90
  Kochia plant response rating: 90
kochia; [3]
  Plant response rating, Kochia: 90
kochia; [4]
  Plant response rating, Kochia: 90
johnsongrass
  Plant response rating (scale of 0 to 100 where 0 is no effect and 100 is complete control), Johnsongrass: 10
  Johnsongrass plant response rating: 10
johnsongrass; [3]
  Plant response rating, Johnsongrass: 20
johnsongrass; [4]
  Plant response rating, Johnsongrass: 10
Oilseed rape
  Oilseed Rape plant response rating: 30
Oilseed rape; [3]
  Plant response rating, Oilseed Rape: 60
Oilseed rape; [4]
  Plant response rating, Oilseed Rape: 60
